Laboratory results published in patent US8653092B2, “Tetrahydro-pyrido-pyrimidine derivatives” (Novartis AG, priority 2010, dated 2014).

How the values were obtained:
PI3K alpha = PI3K alpha (Homo sapiens (Human), UniProt P42336); experiment: Enzymatic PI3K alpha isoform inhibition (lipid kinase, Kinase-Glo luminescence); type: biochemical; conditions: enzymatic assay
PI3K delta = PI3K delta (Homo sapiens (Human), UniProt O00329); experiment: Enzymatic PI3K delta isoform inhibition (lipid kinase, Kinase-Glo luminescence); type: biochemical; conditions: enzymatic assay
PI3K delta, sequence (O00329 other isoform, or with tags, fused parts or gaps linker GGGGGG): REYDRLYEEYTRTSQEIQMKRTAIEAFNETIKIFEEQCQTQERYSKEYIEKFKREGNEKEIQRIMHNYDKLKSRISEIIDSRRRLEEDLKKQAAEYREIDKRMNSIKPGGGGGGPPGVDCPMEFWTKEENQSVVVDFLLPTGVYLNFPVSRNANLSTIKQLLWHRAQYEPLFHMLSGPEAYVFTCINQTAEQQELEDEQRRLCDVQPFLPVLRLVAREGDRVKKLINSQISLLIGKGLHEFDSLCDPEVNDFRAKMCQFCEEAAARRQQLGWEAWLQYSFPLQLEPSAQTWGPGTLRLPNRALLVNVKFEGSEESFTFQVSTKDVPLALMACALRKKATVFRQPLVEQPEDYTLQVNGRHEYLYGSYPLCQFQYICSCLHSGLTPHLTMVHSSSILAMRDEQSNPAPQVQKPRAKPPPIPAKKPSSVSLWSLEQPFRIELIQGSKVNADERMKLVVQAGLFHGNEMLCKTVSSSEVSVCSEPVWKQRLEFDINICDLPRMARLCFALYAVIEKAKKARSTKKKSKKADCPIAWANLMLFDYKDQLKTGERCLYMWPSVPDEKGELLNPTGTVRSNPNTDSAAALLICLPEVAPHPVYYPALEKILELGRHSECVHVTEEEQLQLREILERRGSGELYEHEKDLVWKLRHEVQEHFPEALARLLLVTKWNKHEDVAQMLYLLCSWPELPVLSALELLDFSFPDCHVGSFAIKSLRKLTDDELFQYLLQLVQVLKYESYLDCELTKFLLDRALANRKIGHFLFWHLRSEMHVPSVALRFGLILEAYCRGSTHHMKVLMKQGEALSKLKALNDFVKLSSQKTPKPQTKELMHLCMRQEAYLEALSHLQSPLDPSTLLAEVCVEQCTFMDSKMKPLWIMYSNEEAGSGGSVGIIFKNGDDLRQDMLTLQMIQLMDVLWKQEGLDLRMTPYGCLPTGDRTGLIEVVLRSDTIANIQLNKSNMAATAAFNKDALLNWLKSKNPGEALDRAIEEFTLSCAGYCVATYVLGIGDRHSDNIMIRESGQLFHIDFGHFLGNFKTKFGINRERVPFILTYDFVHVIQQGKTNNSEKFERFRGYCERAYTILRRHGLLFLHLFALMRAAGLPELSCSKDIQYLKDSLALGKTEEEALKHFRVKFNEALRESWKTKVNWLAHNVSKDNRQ

PI3K alpha, sequence (P42336 other isoform, or with tags, fused parts or gaps): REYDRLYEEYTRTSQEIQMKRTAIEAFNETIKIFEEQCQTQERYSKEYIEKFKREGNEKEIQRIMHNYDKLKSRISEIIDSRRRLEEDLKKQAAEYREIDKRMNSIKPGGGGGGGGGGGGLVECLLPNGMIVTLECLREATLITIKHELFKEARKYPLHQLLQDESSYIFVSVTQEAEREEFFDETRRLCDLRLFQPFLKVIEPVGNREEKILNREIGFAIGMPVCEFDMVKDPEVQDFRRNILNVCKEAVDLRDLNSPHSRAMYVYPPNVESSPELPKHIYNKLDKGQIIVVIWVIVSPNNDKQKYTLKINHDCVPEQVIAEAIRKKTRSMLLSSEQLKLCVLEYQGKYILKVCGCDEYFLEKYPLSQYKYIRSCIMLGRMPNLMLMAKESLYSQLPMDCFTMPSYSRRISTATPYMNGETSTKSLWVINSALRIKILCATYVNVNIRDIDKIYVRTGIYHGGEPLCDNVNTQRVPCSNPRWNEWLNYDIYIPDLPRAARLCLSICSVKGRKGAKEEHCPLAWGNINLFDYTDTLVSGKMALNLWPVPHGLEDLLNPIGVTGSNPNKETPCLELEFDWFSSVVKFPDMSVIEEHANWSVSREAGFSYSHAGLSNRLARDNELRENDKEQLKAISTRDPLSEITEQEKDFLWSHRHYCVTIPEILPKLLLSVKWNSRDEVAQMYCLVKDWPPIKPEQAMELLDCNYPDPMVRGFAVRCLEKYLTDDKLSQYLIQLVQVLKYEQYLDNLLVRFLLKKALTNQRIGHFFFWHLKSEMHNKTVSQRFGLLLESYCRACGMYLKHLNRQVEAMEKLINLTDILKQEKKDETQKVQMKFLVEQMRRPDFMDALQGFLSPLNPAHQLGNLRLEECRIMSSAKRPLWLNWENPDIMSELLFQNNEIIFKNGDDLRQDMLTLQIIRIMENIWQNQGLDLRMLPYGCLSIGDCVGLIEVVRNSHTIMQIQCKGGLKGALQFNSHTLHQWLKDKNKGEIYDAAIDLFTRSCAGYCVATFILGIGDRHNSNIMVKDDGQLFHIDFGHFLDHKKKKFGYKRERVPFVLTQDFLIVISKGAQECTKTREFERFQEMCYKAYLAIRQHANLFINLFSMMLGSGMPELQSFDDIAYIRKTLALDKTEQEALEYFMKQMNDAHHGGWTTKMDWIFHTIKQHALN

Row | SMILES | IC50 (PI3K alpha) [nM] | IC50 (PI3K delta) [nM]
1 | COc1ncc(N2CCc3ncnc(O[C@H]4CCN(C(=O)c5ccnn5C)C4)c3C2)cc1C(F)(F)F [Example 42, {(S)-3-[6-(6-Methoxy-5-trifluoromethyl-pyridin-3-yl)-5,6,7,8-tetrahydro-pyrido[4,3-d]pyrimidin-4-yloxy]-pyrrolidin-1-yl}-(2-methyl-2H-pyrazol-3-yl)-methanone] | 863 | 13
2 | COc1ncc(N2CCc3ncnc(N[C@H]4CCN(C(=O)C5CCOCC5)C4)c3C2)cc1C#N [Example 69, 2-Methoxy-5-{4-[(S)-1-(tetrahydro-pyran-4-carbonyl)-pyrrolidin-3-ylamino]-7,8-dihydro-5H-pyrido[4,3-d]pyrimidin-6-yl}-nicotinonitrile] | 56 | 3
3 | COc1ncc(N2CCc3ncnc(O[C@H]4CCN(C(=O)C5CCCC5)C4)c3C2)cc1C#N [Example 9, 5-[4-((S)-1-Cyclopentanecarbonyl-pyrrolidin-3-yloxy)-7,8-dihydro-5H-pyrido[4,3-d]pyrimidin-6-yl]-2-methoxy-nicotinonitrile] | 2910 | 9
4 | COc1ncc(N2CCc3ncnc(O[C@H]4CCN(C(=O)c5cn(C)nc5C)C4)c3C2)cc1C(F)(F)F [Example 48, (1,3-Dimethyl-1H-pyrazol-4-yl)-{(S)-3-[6-(6-methoxy-5-trifluoromethyl-pyridin-3-yl)-5,6,7,8-tetrahydro-pyrido[4,3-d]pyrimidin-4-yloxy]-pyrrolidin-1-yl}-methanone] | 518 | 29
5 | COc1ncc(N2CCc3ncnc(O[C@H]4CCN(C(=O)CC5CCOCC5)C4)c3C2)cc1C#N [Example 27, 2-Methoxy-5-{4-[(S)-1-(2-tetrahydro-pyran-4-yl-acetyl)-pyrrolidin-3-yloxy]-7,8-dihydro-5H-pyrido[4,3-d]pyrimidin-6-yl}-nicotinonitrile] | 3410 | 40
6 | CCC(=O)N1CC[C@H](Oc2ncnc3c2CN(c2cnc(OC)c(C#N)c2)CC3)C1 [Example 64, 2-Methoxy-5-[4-((S)-1-propionyl-pyrrolidin-3-yloxy)-7,8-dihydro-5H-pyrido[4,3-d]pyrimidin-6-yl]-nicotinonitrile] | 2330 | 32
7 | COc1cc(N2CCc3ncnc(O[C@H]4CCN(C(=O)c5coc(C)n5)C4)c3C2)cnc1OC [Example 23, {(S)-3-[6-(5,6-Dimethoxy-pyridin-3-yl)-5,6,7,8-tetrahydro-pyrido[4,3-d]pyrimidin-4-yloxy]-pyrrolidin-1-yl}-(2-methyl-oxazol-4-yl)-methanone] | 129 | 10
8 | CCC(=O)N1CC[C@H](Oc2ncnc3c2CN(c2cnc(OC)c(C(F)(F)F)c2)CC3)C1 [Example 63, 1-{(S)-3-[6-(6-Methoxy-5-trifluoromethyl-pyridin-3-yl)-5,6,7,8-tetrahydro-pyrido[4,3-d]pyrimidin-4-yloxy]-pyrrolidin-1-yl}-propan-1-one] | 791 | 51
9 | COc1ncc(N2CCc3ncnc(O[C@H]4CCN(C(=O)C5CCOCC5)C4)c3C2)cn1 [Example 59, {(S)-3-[6-(2-Methoxy-pyrimidin-5-yl)-5,6,7,8-tetrahydro-pyrido[4,3-d]pyrimidin-4-yloxy]-pyrrolidin-1-yl}-(tetrahydro-pyran-4-yl)-methanone] | 9100 | 28
10 | COc1ncc(N2CCc3ncnc(N[C@H]4CCN(C(=O)C5CCOC(C)(C)C5)C4)c3C2)cc1C (stereo partly drawn) [Example 80, (2,2-Dimethyl-tetrahydro-pyran-4-yl)-{(S)-3-[6-(6-methoxy-5-methyl-pyridin-3-yl)-5,6,7,8-tetrahydro-pyrido[4,3-d]pyrimidin-4-ylamino]-pyrrolidin-1-yl}-methanone] | 430 | 16
11 | COc1ncc(N2CCc3ncnc(O[C@H]4CCN(C(=O)c5cscn5)C4)c3C2)cc1C(F)(F)F [Example 55, {(S)-3-[6-(6-Methoxy-5-trifluoromethyl-pyridin-3-yl)-5,6,7,8-tetrahydro-pyrido[4,3-d]pyrimidin-4-yloxy]-pyrrolidin-1-yl}-thiazol-4-yl-methanone] | 661 | 5
12 | COc1ncc(N2CCc3ncnc(N[C@H]4CCN(C(=O)[C@H]5CC[C@@H](O)CC5)C4)c3C2)cc1C(F)(F)F (single isomer, unassigned) [Example 75] | 118 | 4
13 | COc1ncc(N2CCc3ncnc(O[C@H]4CCN(C(=O)c5cocn5)C4)c3C2)cc1C(F)(F)F [Example 91, {(S)-3-[6-(6-methoxy-5-trifluoromethyl-pyridin-3-yl)-5,6,7,8-tetrahydro-pyrido[4,3-d]pyrimidin-4-yloxy]-pyrrolidin-1-yl}-oxazol-4-yl-methanone] | 924 | 11
14 | COc1ncc(N2CCc3ncnc(O[C@H]4CCN(C(=O)c5c[nH]cn5)C4)c3C2)cc1C(F)(F)F [Example 45, (1H-Imidazol-4-yl)-{(S)-3-[6-(6-methoxy-5-trifluoromethyl-pyridin-3-yl)-5,6,7,8-tetrahydro-pyrido[4,3-d]pyrimidin-4-yloxy]-pyrrolidin-1-yl}-methanone] | 860 | 18
15 | COc1ncc(N2CCc3ncnc(O[C@H]4CCN(C(=O)c5cocn5)C4)c3C2)cc1C [Example 16] | 1680 | 16
16 | COc1ncc(N2CCc3ncnc(O[C@H]4CCN(C(=O)C5CCOCC5)C4)c3C2)c(OC)n1 [Example 2, {(S)-3-[6-(2,4-Dimethoxy-pyrimidin-5-yl)-5,6,7,8-tetrahydro-pyrido[4,3-d]pyrimidin-4-yloxy]-pyrrolidin-1-yl}-(tetrahydro-pyran-4-yl)-methanone] | 3390 | 9
17 | COc1ncc(N2CCc3ncnc(O[C@H]4CCN(C(=O)c5ccon5)C4)c3C2)cc1C [Example 33, Isoxazol-3-yl-{(S)-3-[6-(6-Methoxy-5-methyl-pyridin-3-yl)-5,6,7,8-tetrahydro-pyrido[4,3-d]pyrimidin-4-yloxy]-pyrrolidin-1-yl}-methanone] | 1970 | 18
18 | COc1ncc(N2CCc3ncnc(O[C@H]4CCN(C(=O)c5cnn(C)c5)C4)c3C2)cc1C#N [Example 36, 2-Methoxy-5-{4-[(S)-1-(1-methyl-1H-pyrazole-4-carbonyl)-pyrrolidin-3-yloxy]-7,8-dihydro-5H-pyrido[4,3-d]pyrimidin-6-yl}-nicotinonitrile] | 4100 | 25
19 | COc1ncc(N2CCc3ncnc(O[C@H]4CCN(C(=O)c5oc(C)nc5C)C4)c3C2)cc1C(F)(F)F [Example 40, (2,4-Dimethyl-oxazol-5-yl)-{(S)-3-[6-(6-methoxy-5-trifluoromethyl-pyridin-3-yl)-5,6,7,8-tetrahydro-pyrido[4,3-d]pyrimidin-4-yloxy]-pyrrolidin-1-yl}-methanone] | 260 | 6
20 | COc1ncc(N2CCc3ncnc(O[C@H]4CCN(C(=O)c5cn(C)cn5)C4)c3C2)cc1C(F)(F)F [Example 53, {(S)-3-[6-(6-Methoxy-5-trifluoromethyl-pyridin-3-yl)-5,6,7,8-tetrahydro-pyrido[4,3-d]pyrimidin-4-yloxy]-pyrrolidin-1-yl}-(1-methyl-1H-imidazol-4-yl)-methanone] | 504 | 6
21 | COc1ncc(N2CCc3ncnc(O[C@H]4CCN(C(=O)c5conc5C)C4)c3C2)cc1C [Example 32, {(S)-3-[6-(6-Methoxy-5-methyl-pyridin-3-yl)-5,6,7,8-tetrahydro-pyrido[4,3-d]pyrimidin-4-yloxy]-pyrrolidin-1-yl}-(3-methyl-isoxazol-4-yl)-methanone] | 2040 | 23
22 | COc1ncc(N2CCc3ncnc(O[C@H]4CCN(C(=O)c5ocnc5C)C4)c3C2)cc1C [Example 18, {(S)-3-[6-(6-Methoxy-5-methyl-pyridin-3-yl)-5,6,7,8-tetrahydro-pyrido[4,3-d]pyrimidin-4-yloxy]-pyrrolidin-1-yl}-(4-methyl-oxazol-5-yl)-methanone] | 871 | 33
23 | COCC(=O)N1CC[C@H](Oc2ncnc3c2CN(c2cnc(OC)c(C#N)c2)CC3)C1 [Example 8, 2-Methoxy-5-{4-[(S)-1-(2-methoxy-acetyl)-pyrrolidin-3-yloxy]-7,8-dihydro-5H-pyrido[4,3-d]pyrimidin-6-yl}-nicotinonitrile] | 2490 | 27
24 | COc1ncc(N2CCc3ncnc(OC4CN(C(=O)C5CCOCC5)C4)c3C2)cc1C(F)(F)F [Example 58, {3-[6-(6-Methoxy-5-trifluoromethyl-pyridin-3-yl)-5,6,7,8-tetrahydro-pyrido[4,3-d]pyrimidin-4-yloxy]-azetidin-1-yl}-(tetrahydro-pyran-4-yl)-methanone] | 3060 | 30
25 | Nc1ncc(N2CCc3ncnc(O[C@H]4CCN(C(=O)C5CCOCC5)C4)c3C2)cc1C(F)(F)F [Example 57, {(S)-3-[6-(6-Amino-5-trifluoromethyl-pyridin-3-yl)-5,6,7,8-tetrahydro-pyrido[4,3-d]pyrimidin-4-yloxy]-pyrrolidin-1-yl}-(tetrahydro-pyran-4-yl)-methanone] | 590 | 25
26 | COc1ccc(N2CCc3ncnc(O[C@H]4CCN(C(=O)C5CCOCC5)C4)c3C2)cn1 [Example 95, {(S)-3-[6-(6-Methoxy-pyridin-3-yl)-5,6,7,8-tetrahydro-pyrido[4,3-d]pyrimidin-4-yloxy)pyrrolidin-1-yl}-(tetrahydro-pyran-4-yl)-methanone] | 757 | 53
27 | COc1ncc(N2CCc3ncnc(O[C@H]4CCN(C(=O)c5cnn(C)c5)C4)c3C2)cc1C(F)(F)F [Example 54, {(S)-3-[6-(6-Methoxy-5-trifluoromethyl-pyridin-3-yl)-5,6,7,8-tetrahydro-pyrido[4,3-d]pyrimidin-4-yloxy]-pyrrolidin-1-yl}-(1-methyl-1H-pyrazol-4-yl)-methanone] | 384 | 5
28 | COc1ncc(N2CCc3ncnc(O[C@H]4CCN(C(=O)N5CCOCC5)C4)c3C2)cc1C(F)(F)F [Example 86, -{(S)-3-[6-(6-Methoxy-5-trifluoromethyl-pyridin-3-yl)-5,6,7,8-tetrahydro-pyrido[4,3-d]pyrimidin-4-yloxy]-pyrrolidin-1-yl}-morpholin-4-yl-methanone] | 1330 | 20
